For the assay, the system named is 379773-124-R-J2-PDC complex spheroids, viability % test/control. Nature of the assay: Anticancer human tumor 379773-124-R-J2-PDC patient-derived endometrial carcinoma cell line growth inhibition [CLK]. The conditions noted are these: for viability, T/C: stronger effect = lower value; for IC50: curve of compound. An excerpt:
A high-throughput screen of multi-cell type tumor spheroids was designed to identify active combinations of […] and targeted small molecules. Complex spheroids include a stromal component modeled by human endothelial cells (HUVEC) and fibroblasts modeled by human mesenchymal stem cells (MSCs). The concentration ranges selected for each drug and investigational agent were based upon clinically achievable concentrations if the clinical Cmax of the agent was known.
Compounds. The drugs and investigational agents: cirtuvivint (SM08502; NSC835563), CC-671 (NSC850746), vemurafenib (NSC761431), tapotoclax (NSC804041), sotorasib (NSC818433), adagrasib (NSC831453), MRTX-1133 (NSC836407), BAY2416964 (NSC825713), copanlisib (NSC816437), inavolisib (NSC800729), abemaciclib (NSC768073), osimertinib (NSC779217), entinostat (NSC756642), eltanexor (KPT-8602, NSC794443), venetoclax (NSC766270), ceralasertib (NSC777638), bortezomib (NSC756655), olaparib (NSC753686), talazoparib (NSC767125), alisertib (NSC759677), peposertib (NSC802822), gemcitabine (NSC613327), 5-fluorouracil (NSC19893), SN-38 (NSC673596), oxaliplatin (NSC266046), paclitaxel (NSC125973), and doxorubicin (NSC123127), were obtained from the National Cancer Institute (NCI) Developmental Therapeutics Program Chemical Repository. The FDA-approved anticancer drug set is available from the Developmental Therapeutics Program at https://dtp.cancer.gov/organization/dscb/obtaining/available plates.htm. […] The stock solutions were prepared in dimethyl sulfoxide (DMSO, Sigma-Aldrich, St. Louis, MO, cat. D2650), except for the platinum complexes which were prepared in saline (Quality Biological, Gaithersburg, MD, cat. 114-055-101), at 800-fold the tested concentration and stored at -70 degrees C prior to their use. All drugs and investigational agents were tested over a range starting from a high concentration at or near the clinical Cmax and decreasing in half-log increments. If the clinical Cmax for an agent had not been determined, the highest concentration tested was 10 microM.
Cell Culture. All cells were maintained in an incubator at 37 degrees C and 5% CO2 with 95% humidity. The PDC lines were cultured according to standard operating procedures established by the NCI PDMR. Briefly, all PDCs were thawed and cultured in Matrigel-coated flasks prepared with a working solution of 1X Ham's F-12 nutrient mix, without supplementation (Invitrogen, Waltham, MA, cat. 11765054), 100 U/mL penicillin-streptomycin (Invitrogen, cat. 15140122), and 2.5% Matrigel (Corning Inc., Corning, NY, cat. 354248) for the first three passages. The 947758-054-R-J2-PDC line was cultured in 6B/Colon 1A media, which includes advanced DMEM/F-12 (Thermo Fisher Scientific, cat. 12634028), 10 mM HEPES (Thermo Fisher Scientific, cat. 15630080), 1X GlutaMAX supplement (Thermo Fisher Scientific, cat. 35050061), 0.1 mg/mL primocin (InvivoGen, cat. ant-pm-2), 10% defined fetal bovine serum, heat inactivated (HyClone Laboratories Inc., cat. SH30070.03HI), 1.25 mM N-Acetyl-L-cysteine (Sigma-Aldrich, cat. A9165), 10 mM nicotinamide (Sigma-Aldrich, cat. N0636), 1X B-27 supplement (Thermo Fisher Scientific, cat. 17504044), 1X N-2 supplement (Thermo Fisher Scientific, cat. 17502048), and 10 microM Y-27632 dihydrochloride (Tocris Bioscience, cat. 1254). The 876862-298-R-J1-PDC was cultured in 6E media, which includes all 6B/Colon 1A media components plus 50% L-WRN conditioned media (ATCC, cat. CRL-3276), 50 ng/mL recombinant human EGF recombinant protein (hEGF; Thermo Fisher Scientific, cat. PHG0311), 10 ng/mL recombinant human fibroblast growth factor 10 (hGFG-10; PeproTech, cat. 100-26), 1 ng/mL recombinant human fibroblast growth factor 2 (hFGF-2; PeproTech, cat. 100-18B), and 1 µM prostaglandin E2 (PGE2; Tocris, cat. 2296). The 227483-062-R1-J1-PDC line was cultured in Panc media, containing all 6E components except hFGF-2, with the addition of 500 nM SB-431542 (Selleckchem, cat. S1067) and 10 nM gastrin (Tocris, cat. 3006). […]

Values joined by “and” are separate entries in the source; they are usually repeats but may differ in a detail not shown here. Equal values may be shown once.
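Also: compound exposure lasted seven days before the viability readout.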
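For viability, T/C in this document: 100% = DMSO vehicle control wells.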

`CC(=O)O[C@H]1C(=O)[C@@]2(C)[C@H]([C@H](OC(=O)c3ccccc3)[C@]3(O)C[C@H](OC(=O)[C@H](O)[C@@H](NC(=O)c4ccccc4)c4ccccc4)C(C)=C1C3(C)C)[C@]1(OC(C)=O)CO[C@@H]1C[C@@H]2O`: the IC50 (commonly the point on the concentration scale where inhibition reaches its midpoint) is less than 0.0316 µM. The viability, T/C – broadly, the ratio of treated to control – (compound 0.0316 µM) was 6.12% and 4.78%. Further, for the setting “compound 0.1 µM”, the viability, T/C was 5.31% and 6.44%. Besides, the viability, T/C (compound 0.316 µM) is 6.35% and 7.02%. Under “compound 1 µM”, the viability, T/C is 6.24% and 5.61%. The viability, T/C (compound 3.16 µM) is 4.99% and 3.42%. Besides, the viability, T/C (compound 10 µM) was 6.18% and 4.64%.

`CC1(C)CCC(CN2CCN(c3ccc(C(=O)NS(=O)(=O)c4ccc(NCC5CCOCC5)c([N+](=O)[O-])c4)c(Oc4cnc5[nH]ccc5c4)c3)CC2)=C(c2ccc(Cl)cc2)C1`: the IC50 was 4.88 µM and 4.99 µM. For the setting “compound 0.0316 µM”, the viability, T/C is 89.8% and 83.7%. For the same molecule, where the note is “compound 0.1 µM”, the viability, T/C is 92.6% and 89.4%. For the same molecule, the viability, T/C (compound 0.316 µM) was 96.8% and 94%. Under “compound 1 µM”, the viability, T/C was 96.9% and 111%. In addition, under “compound 3.16 µM”, the viability, T/C is 77.8% and 79.7%. Also, the viability, T/C (compound 10 µM) is 3.91% and 4.86%.

In the case of `CC1COCCN1c1cc(C2(S(C)(=N)=O)CC2)nc(-c2ccnc3[nH]ccc23)n1` (stereo not drawn), the IC50 is 2.7 µM and 2.87 µM. In addition, the viability, T/C (compound 0.0316 µM) was 90.7% and 97.2%. Besides, the viability, T/C (compound 0.1 µM) is 80.4% and 89.4%. For the same molecule, the viability, T/C (compound 0.316 µM) is 70.8% and 87.9%. The viability, T/C (compound 1 µM) was 88.6% and 74.2%. Moreover, the viability, T/C (compound 3.16 µM) was 44.8% and 47.4%. Besides, the viability, T/C (compound 10 µM) was 11.5% and 10.6%.

Take `COc1ccc([C@@H](O)c2cc(-c3ncnc4cc(N5CCOCC5)ccc34)c(F)cc2Cl)nn1`: the IC50 is 5.67 µM and 6.25 µM. Moreover, the viability, T/C (compound 0.0316 µM) is 95.4% and 83.8%. In addition, the viability, T/C (compound 0.1 µM) is 98.1% and 79.4%. For the same molecule, the viability, T/C (compound 0.316 µM) is 81.3% and 79.2%. For the same molecule, under “compound 1 µM”, the viability, T/C was 84.2% and 84.5%. The viability, T/C (compound 3.16 µM) was 68% and 79%. The viability, T/C (compound 10 µM) was 33.4% and 29.9%.

Regarding `COc1cccc2c1C(=O)c1c(O)c3c(c(O)c1C2=O)CC(O)(C(=O)CO)CC3OC1CC(N)C(O)C(C)O1` (stereo not drawn), the IC50 is 0.0345 µM and < 0.0316 µM. Further, where the note is “compound 0.0316 µM”, the viability, T/C was 53.6% and 49.6%. Moreover, the viability, T/C (compound 0.1 µM) is 9.76% and 9.37%. In addition, the viability, T/C (compound 0.316 µM) was 7.51% and 5.56%. Besides, the viability, T/C (compound 1 µM) was 3.51% and 3.77%. For the same molecule, the viability, T/C (compound 3.16 µM) is 1.61% and 0.59%. For the same molecule, the viability, T/C (compound 10 µM) was 0.12% and 0.15%.

As to `Nc1ccccc1NC(=O)c1ccc(CNC(=O)OCc2cccnc2)cc1`, the IC50 was 3.02 µM and 2.86 µM. In addition, the viability, T/C (compound 0.0316 µM) was 108% and 92.4%. In addition, where the note is “compound 0.1 µM”, the viability, T/C is 100% and 89.7%. In addition, under “compound 0.316 µM”, the viability, T/C is 95.6% and 104%. The viability, T/C (compound 1 µM) is 102% and 96.7%. The viability, T/C (compound 3.16 µM) was 47.8% and 45.6%. Also, the viability, T/C (compound 10 µM) is 8.85% and 7.74%.

On to `Nc1ccn(C2OC(CO)C(O)C2(F)F)c(=O)n1` (stereo not drawn), for which the IC50 is less than 0.0316 µM. Also, the viability, T/C (compound 0.0316 µM) is 6.4% and 4.58%. Further, the viability, T/C (compound 0.1 µM) is 5.3% and 4.24%. Moreover, the viability, T/C (compound 0.316 µM) was 6.69% and 3.96%. Under “compound 1 µM”, the viability, T/C is 5.77% and 4.69%. Where the note is “compound 3.16 µM”, the viability, T/C is 4.84% and 3.97%. The viability, T/C (compound 10 µM) was 3.93% and 3.21%.

As to `O=C(c1cc(Cc2n[nH]c(=O)c3ccccc23)ccc1F)N1CCN(C(=O)C2CC2)CC1`, the IC50 was more than 10 µM. The viability, T/C (compound 0.0316 µM) was 83.1% and 108%. Moreover, where the note is “compound 0.1 µM”, the viability, T/C is 89% and 86.6%. For the same molecule, the viability, T/C (compound 0.316 µM) is 89.2% and 84.2%. Besides, the viability, T/C (compound 1 µM) was 89.5% and 80.5%. Also, the viability, T/C (compound 3.16 µM) is 81.5% and 78.6%. Besides, the viability, T/C (compound 10 µM) was 56.1% and 47%.

For the molecule `O=c1[nH]cc(F)c(=O)[nH]1`, the IC50 was more than 10 µM. Besides, the viability, T/C (compound 0.0316 µM) is 90.7% and 97.5%. The viability, T/C (compound 0.1 µM) is 107% and 93.2%. Further, the viability, T/C (compound 0.316 µM) was 91.5% and 98.6%. In addition, the viability, T/C (compound 1 µM) is 97.5% and 100%. Under “compound 3.16 µM”, the viability, T/C was 70.2% and 81.4%. Also, under “compound 10 µM”, the viability, T/C was 50.9% and 73.7%.
